Experiment: photoluminescence quantum yield (fraction); solvent given as SMILES

`C[n+]1ccn(CCCCc2ccc3c(c2)c2ccccc2n3-c2cc(C#N)c(C#N)cc2-n2c3ccccc3c3cc(CCCCn4cc[n+](C)c4)ccc32)c1` showed a photoluminescence quantum yield (in CC#N) of 0.026.

`Nc1cccc2c1C(=O)NC2=O` showed a photoluminescence quantum yield (in C1CCOC1) of 0.97, a photoluminescence quantum yield (in CCO) of 0.74 and a photoluminescence quantum yield (in CN(C)C=O) of 0.66.

For `N#Cc1cc(C#N)c(-c2cc(-n3c4ccccc4c4ccccc43)cc(-n3c4ccccc4c4ccccc43)c2)cc1-c1cc(-n2c3ccccc3c3ccccc32)cc(-n2c3ccccc3c3ccccc32)c1`, the photoluminescence quantum yield (in C1CCCCC1) was 0.11.

`CCc1ccc(-c2ccc(-c3nnc(-c4ccc(-c5nnc(-c6ccc(-c7ccc(CC)cc7)s6)o5)cc4)o3)s2)cc1` gave a photoluminescence quantum yield (in ClC(Cl)Cl) of 0.6.

Molecule `COc1ccc(C2=C3C=CC(C)=[N+]3[B-](F)(F)n3c(C)ccc32)cc1` has a photoluminescence quantum yield (in C1CCCCC1) of 0.42, a photoluminescence quantum yield (in C1CCOC1) of 0.36 and a photoluminescence quantum yield (in CC#N) of 0.21. The photoluminescence quantum yield (in CCOC(C)=O) was 0.3, the photoluminescence quantum yield (in CO) was 0.25 and the photoluminescence quantum yield (in Cc1ccccc1) was 0.52. For the same molecule, the photoluminescence quantum yield (in ClC(Cl)Cl) was 0.46.

For `COc1ccc(C2=Cc3ccc4ccccc4[n+]3[B-](F)(F)O2)cc1`, the photoluminescence quantum yield (in ClC(Cl)Cl) was 0.94.

Work on `N#Cc1nn(-c2ccccc2Cl)nc1N1CCCC1` yielded a photoluminescence quantum yield (in CC#N) of 0.607.

With `CC(C)(C)c1ccc2c(c1)c1cc(C(C)(C)C)ccc1n2-c1ccc(N(c2ccc(-c3ccc(N(c4ccc(-n5c6ccc(C(C)(C)C)cc6c6cc(C(C)(C)C)ccc65)cc4)c4ccc(-n5c6ccc(C(C)(C)C)cc6c6cc(C(C)(C)C)ccc65)cc4)cc3)cc2)c2ccc(-n3c4ccc(C(C)(C)C)cc4c4cc(C(C)(C)C)ccc43)cc2)cc1` the photoluminescence quantum yield (in ClCCl) was 0.55.

With `CCCc1ccc(C#Cc2ccc3nc4ccc(C#Cc5ccc(CCC)cc5)cn4c(=O)c3c2)cc1` the photoluminescence quantum yield (in ClCCl) was 0.45.

In the case of `COc1cc2cc(OC)c(C#Cc3ccc([N+](=O)[O-])cc3)cc2cc1C#Cc1ccc([N+](=O)[O-])cc1`, the photoluminescence quantum yield (in C1CCOC1) is reported as 0.009, the photoluminescence quantum yield (in ClC(Cl)Cl) is reported as 0.053 and the photoluminescence quantum yield (in ClCCl) is reported as 0.019.

For `CC(C)[Si](C#Cc1c2cc3ccccc3cc2c(C#Cc2ccc(Br)cc2)c2cc3ccccc3cc12)(C(C)C)C(C)C`, the photoluminescence quantum yield (in ClCCl) was 0.12.

With `CN(C)c1ccc(-c2cc3c(s2)c(C(=O)c2ccccc2)cc(=O)n3Cc2ccccc2)cc1` the photoluminescence quantum yield (in ClCCl) was 0.01.

Work on `CC(=O)Nc1ccc(O)cc1` yielded a photoluminescence quantum yield (in C1CCOC1) of 0.0031, a photoluminescence quantum yield (in CC#N) of 0.0035 and a photoluminescence quantum yield (in CCCCO) of 0.0007. The photoluminescence quantum yield (in CO) was 0.0037 and the photoluminescence quantum yield (in CS(C)=O) was 0.0022.

Molecule `C(#Cc1ccccc1)C(C#Cc1ccccc1)=Cc1ccc2cc(C=C(C#Cc3ccccc3)C#Cc3ccccc3)ccc2c1` has a photoluminescence quantum yield (in ClC(Cl)Cl) of 0.49.

Work on `N#Cc1c(-n2c3ccc(Br)cc3c3cc(Br)ccc32)c(-n2c3ccc(Br)cc3c3cc(Br)ccc32)c(C#N)c(-n2c3ccc(Br)cc3c3cc(Br)ccc32)c1-n1c2ccc(Br)cc2c2cc(Br)ccc21` yielded a photoluminescence quantum yield (in Cc1ccccc1) of 0.45.

Work on `c1ccc2c(c1)sc1c3ccccc3c3ncncc3c21` yielded a photoluminescence quantum yield (in ClCCl) of 0.08.

`c1ccc2c(c1)OP1(=NP(Oc3ccc4ccc5cccc6ccc3c4c56)(Oc3ccc4ccc5cccc6ccc3c4c56)=NP(Oc3ccc4ccc5cccc6ccc3c4c56)(Oc3ccc4ccc5cccc6ccc3c4c56)=N1)Oc1ccccc1-2` gave a photoluminescence quantum yield (in ClCCl) of 0.89.

In the case of `O=C(O)CC[N+]1=c2cc3c(cc2CCC1)=Cc1c(c2cc4c5c(c2oc1=O)CCCN5CCC4)O3`, the photoluminescence quantum yield (in CC#N) is reported as 0.025, the photoluminescence quantum yield (in CO) is reported as 0.013 and the photoluminescence quantum yield (in ClCCl) is reported as 0.163. It also gave a photoluminescence quantum yield (in O) of 0.003.

In the case of `c1ccc2c(c1)c1ccccc1n2-c1ccc(-c2ccc(-c3ccc(-n4c5ccccc5c5ccccc54)nc3-n3c4ccccc4c4ccccc43)nn2)c(-n2c3ccccc3c3ccccc32)n1`, the photoluminescence quantum yield (in Cc1ccccc1) is reported as 0.36.

`Cc1ccc(N(c2ccc(C)cc2)c2ccc(Oc3nnc(Cl)nn3)cc2)cc1` showed a photoluminescence quantum yield (in ClCCl) of 0.0006.

For `COc1ccc2nc3c(nc2c1)c(-c1ccccc1)nn3C`, the photoluminescence quantum yield (in C1CCCCC1) was 0.22, the photoluminescence quantum yield (in C1CCOC1) was 0.34 and the photoluminescence quantum yield (in CC#N) was 0.35.

Work on `CCCN1/C(=C/C=C(/C=C/C2=[N+](CCC)c3ccccc3C2(C)C)c2ccncc2)C(C)(C)c2ccccc21` yielded a photoluminescence quantum yield (in CO) of 0.24, a photoluminescence quantum yield (in CS(C)=O) of 0.15 and a photoluminescence quantum yield (in O) of 0.07.

Molecule `CC(C)[Si](C#Cc1c2cc3ccccc3cc2c(C#C[Si](C(C)C)(C(C)C)C(C)C)c2nc3c(nc12)Cc1ccccc1-3)(C(C)C)C(C)C` has a photoluminescence quantum yield (in CCCCCC) of 0.15.

`CCCCCCCCOc1ccc(C#Cc2ccc(C#Cc3ccc(OCCCCCCCC)c(OCCCCCCCC)c3)c3nc4c5ccccc5c5ccccc5c4nc23)cc1OCCCCCCCC` gave a photoluminescence quantum yield (in C1CCOC1) of 0.18, a photoluminescence quantum yield (in Cc1ccccc1) of 0.19 and a photoluminescence quantum yield (in ClCCl) of 0.33.

With `CC(C)(C)c1ccc2c(c1)sc1[n+]2[B-](F)(F)n2c(c3cccc4c(Br)ccc2c43)=N1` the photoluminescence quantum yield (in C1CCOC1) was 0.63, the photoluminescence quantum yield (in CC#N) was 0.64 and the photoluminescence quantum yield (in CCCCCC) was 0.68. It also gave a photoluminescence quantum yield (in Cc1ccccc1) of 0.64 and a photoluminescence quantum yield (in ClCCl) of 0.72.

Molecule `CCOC(=O)CSc1nc2c(c(C#N)c1C#N)CCCCCC2` has a photoluminescence quantum yield (in c1ccccc1) of 0.039.

Molecule `CN(C)c1ccc(C2=CC3=C(c4ccc([N+](=O)[O-])cc4)[C@H]4c5ccccc5[C@]3(S2)c2ccccc24)cc1` has a photoluminescence quantum yield (in ClCCl) of 0.003.

Work on `O=C(c1ccncc1)c1ccc(-n2c3ccccc3c3cc(-n4c5ccccc5c5ccccc54)ccc32)cc1` yielded a photoluminescence quantum yield (in Cc1ccccc1) of 0.178 and a photoluminescence quantum yield (in c1cc(-c2cccc(-n3c4ccccc4c4ccccc43)c2)cc(-n2c3ccccc3c3ccccc32)c1) of 0.72.

In the case of `Cc1ccc(-c2cnc3nn4ccccc4c3n2)cc1`, the photoluminescence quantum yield (in C1CCOC1) is reported as 0.26.

`CN(C)CCN(Cc1c2ccccc2cc2ccccc12)c1ccc([N+](=O)[O-])cn1` showed a photoluminescence quantum yield (in C1CCCCC1) of 0.0003, a photoluminescence quantum yield (in C1CCOC1) of 0.0009 and a photoluminescence quantum yield (in CC#N) of 0.0383. For the same molecule, the photoluminescence quantum yield (in CC(C)=O) was 0.00324, the photoluminescence quantum yield (in CCO) was 0.0115 and the photoluminescence quantum yield (in CN(C)C=O) was 0.0398. For the same molecule, the photoluminescence quantum yield (in CO) was 0.00453 and the photoluminescence quantum yield (in ClC(Cl)Cl) was 0.005.

For `COc1ccc(-n2nc(C#N)c(N3CCC(N4CCCCC4)CC3)n2)cc1`, the photoluminescence quantum yield (in CC#N) was 0.156.

Molecule `CCCN1c2ccccc2Sc2cc(/C=C\c3cc(=O)oc4cc(C)ccc34)ccc21` has a photoluminescence quantum yield (in ClC(Cl)Cl) of 0.27.

With `CCOC(=O)c1ccc(C2CC(c3cccc4ccccc34)=NN2c2ccc(F)cc2)cc1` (stereo unspecified) the photoluminescence quantum yield (in ClCCl) was 0.191.

For `Cc1ccc(N2C(c3ccccc3[N-]S(=O)(=O)c3ccc(C)cc3)=[NH+]C(c3ccccc3)C2c2ccccc2)cc1` (stereo unspecified), the photoluminescence quantum yield (in Cc1ccccc1) was 0.396.

Work on `O=CC1=C(c2ccc(-c3cccs3)s2)CC1` yielded a photoluminescence quantum yield (in CCO) of 0.32.

`CN(C)c1ccc(-c2cc(-c3ccc(C#N)cc3)nc(-c3ccccc3)n2)cc1` showed a photoluminescence quantum yield (in ClC(Cl)Cl) of 0.44.

In the case of `CC(C)(C)c1ccc2c(c1)[nH]c1c3[nH]c4cc(C(C)(C)C)ccc4c3c3nsnc3c21`, the photoluminescence quantum yield (in CN(C)C=O) is reported as 0.09, the photoluminescence quantum yield (in Cc1ccccc1) is reported as 0.11 and the photoluminescence quantum yield (in ClCCl) is reported as 0.12.

With `Cc1ccc(-c2c3ccc([nH]3)c3nc(c(-c4ccc([N+](=O)[O-])cc4)c4ccc([nH]4)c4ccc([nH]4)c(-c4ccc(C)cc4)c4ccc2o4)C=C3)cc1` the photoluminescence quantum yield (in C1CCOC1) was 0.018, the photoluminescence quantum yield (in Cc1ccccc1) was 0.083 and the photoluminescence quantum yield (in c1ccccc1) was 0.098.

Work on `Cc1cccc(C2=CC3=C(c4c(C)cc(C)cc4C)c4cc(-c5cccc(C)c5)c(-c5cccc(C)c5)n4[B-](F)(F)[N+]3=C2c2cccc(C)c2)c1` yielded a photoluminescence quantum yield (in C1CCCCC1) of 0.41, a photoluminescence quantum yield (in C1CCOC1) of 0.33 and a photoluminescence quantum yield (in CC#N) of 0.24. It also gave a photoluminescence quantum yield (in Cc1ccccc1) of 0.44 and a photoluminescence quantum yield (in ClCCl) of 0.3.

For `C(=C/c1ccc(N(c2ccccc2)c2ccccc2)cc1)/c1ccc(N(c2ccccc2)c2ccccc2)cc1`, the photoluminescence quantum yield (in ClCCl) was 0.99.

For `COc1ccc2c3c(c4ccc(OC)cc4c2c1)=[N+]1C(=C(c2c(C)cc(C)cc2C)c2cc4c5ccc(OC)cc5c5cc(OC)ccc5c4n2[B-]1(F)F)C=3`, the photoluminescence quantum yield (in C1CCCCC1) was 0.63, the photoluminescence quantum yield (in C1CCOC1) was 0.5 and the photoluminescence quantum yield (in CC#N) was 0.33. For the same molecule, the photoluminescence quantum yield (in Cc1ccccc1) was 0.54 and the photoluminescence quantum yield (in ClCCl) was 0.53.

`CCCCCCC1(CCCCCC)c2cc(-c3nc(-c4ccc5c(c4)C(CCCCCC)(CCCCCC)c4cc(-n6c7ccc(C(C)(C)C)cc7c7cc(C(C)(C)C)ccc76)ccc4-5)nc(-c4ccc5c(c4)C(CCCCCC)(CCCCCC)c4cc(-n6c7ccc(C(C)(C)C)cc7c7cc(C(C)(C)C)ccc76)ccc4-5)n3)ccc2-c2ccc(-n3c4ccc(C(C)(C)C)cc4c4cc(C(C)(C)C)ccc43)cc21` showed a photoluminescence quantum yield (in C1CCOC1) of 0.56, a photoluminescence quantum yield (in CCCCCC) of 1 and a photoluminescence quantum yield (in Cc1ccccc1) of 0.99. It also gave a photoluminescence quantum yield (in ClCCl) of 0.56.

`COC(=O)C(Cc1ccc2oc(-c3ccc(N(C)C)cc3)nc2c1)NC(=O)OC(C)(C)C` (stereo unspecified) gave a photoluminescence quantum yield (in C1CCCCC1) of 1, a photoluminescence quantum yield (in C1CCOC1) of 0.88 and a photoluminescence quantum yield (in C1COCCO1) of 1. For the same molecule, the photoluminescence quantum yield (in CC1CCCO1) was 1, the photoluminescence quantum yield (in CC1COC(=O)O1) was 1 and the photoluminescence quantum yield (in CC#N) was 0.95. The photoluminescence quantum yield (in CC(C)=O) was 1, the photoluminescence quantum yield (in CC(C)CC(C)(C)C) was 0.95 and the photoluminescence quantum yield (in CC(C)CO) was 1. It also gave a photoluminescence quantum yield (in CC(C)O) of 1, a photoluminescence quantum yield (in CC(C)OC(C)C) of 1 and a photoluminescence quantum yield (in CC(O)CO) of 0.99. The photoluminescence quantum yield (in CCC(C)CC) was 0.92, the photoluminescence quantum yield (in CCCCC) was 0.95 and the photoluminescence quantum yield (in CCCCCC) was 0.93. The photoluminescence quantum yield (in CCCCCCCCC) was 1, the photoluminescence quantum yield (in CCCCCCCCCC) was 0.93 and the photoluminescence quantum yield (in CCCCCCCO) was 1. It also gave a photoluminescence quantum yield (in CCCCCCO) of 1, a photoluminescence quantum yield (in CCCCCO) of 1 and a photoluminescence quantum yield (in CCCCO) of 0.99. For the same molecule, the photoluminescence quantum yield (in CCO) was 0.98, the photoluminescence quantum yield (in CCOC(C)=O) was 1 and the photoluminescence quantum yield (in CCOCC) was 0.99. For the same molecule, the photoluminescence quantum yield (in CN(C)C=O) was 0.92, the photoluminescence quantum yield (in CO) was 0.81 and the photoluminescence quantum yield (in COCCOC) was 0.7. The photoluminescence quantum yield (in CS(C)=O) was 1, the photoluminescence quantum yield (in Cc1ccccc1) was 0.9 and the photoluminescence quantum yield (in Cc1ccccc1C) was 0.99. It also gave a photoluminescence quantum yield (in ClC(Cl)Cl) of 0.68, a photoluminescence quantum yield (in ClCCl) of 1 and a photoluminescence quantum yield (in NC=O) of 0.71. It also gave a photoluminescence quantum yield (in OC1CCCCC1) of 0.91, a photoluminescence quantum yield (in OCCO) of 0.76 and a photoluminescence quantum yield (in c1ccccc1) of 0.97.

With `CC1=N/C(=C\c2ccc(C#N)c(N(C)C)c2)C(=O)N1C` the photoluminescence quantum yield (in C1CCOC1) was 0.07, the photoluminescence quantum yield (in CC#N) was 0.02 and the photoluminescence quantum yield (in CCCCCC) was 0.41.
